Source: the supplement of paper PMC10307832

Experiments:
Assay in all cases: relative viability (nuclei count vs DMSO), 5 days (fraction); higher = more cells survive
Dovitinib = compound: CN1CCN(c2ccc3nc(-c4c(N)c5c(F)cccc5[nH]c4=O)[nH]c3c2)CC1 [Dovitinib]
Procedure, shortened: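 Nuclei counted with MetaXpress define viability as the ratio of treated to vehicle wells, given as a median across plates. The lung cancer cell lines were in 1536-well plates, pinned with five √10-spaced library-drug doses and imaged at 4× after 5 days and Hoechst staining. Plates passed with control CV below 25% and at least one doubling.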

Dovitinib + Tozasertib = compound: CN1CCN(c2ccc3nc(-c4c(N)c5c(F)cccc5[nH]c4=O)[nH]c3c2)CC1 [Dovitinib] + Cc1cc(Nc2cc(N3CCN(C)CC3)nc(Sc3ccc(NC(=O)C4CC4)cc3)n2)n[nH]1 [Tozasertib] (partner 0.1 µM)
Procedure, shortened: (§1)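 Cells from lung cancer lines were seeded into 1536-well plates and, one day later, dosed by pin tool. Treatments were either a single drug or a fixed dose of an anchor drug with five library-drug doses (not always all listed) in √10 steps. After 5 days, nuclei were stained in a one-step fixation (final 0.05% Triton X-100, 1% formaldehyde, 1 ug/ml Hoechst) and counted on 4× images, and relative viability is the treated-to-vehicle nuclei ratio, as the median of duplicate plates.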

Dovitinib + Pemetrexed = compound: CN1CCN(c2ccc3nc(-c4c(N)c5c(F)cccc5[nH]c4=O)[nH]c3c2)CC1 [Dovitinib] + Nc1nc2[nH]cc(CCc3ccc(C(=O)N[C@@H](CCC(=O)O)C(=O)O)cc3)c2c(=O)[nH]1 [Pemetrexed] (partner 0.2 µM)
Procedure, shortened: as §1

Dovitinib + Palbociclib = compound: CN1CCN(c2ccc3nc(-c4c(N)c5c(F)cccc5[nH]c4=O)[nH]c3c2)CC1 [Dovitinib] + CC(=O)c1c(C)c2cnc(Nc3ccc(N4CCNCC4)cn3)nc2n(C2CCCC2)c1=O [Palbociclib] (partner 0.5 µM)
Procedure, shortened: as §1

Dovitinib + Dasatinib = compound: CN1CCN(c2ccc3nc(-c4c(N)c5c(F)cccc5[nH]c4=O)[nH]c3c2)CC1 [Dovitinib] + Cc1nc(Nc2ncc(C(=O)Nc3c(C)cccc3Cl)s2)cc(N2CCN(CCO)CC2)n1 [Dasatinib] (partner 0.075 µM)
Procedure, shortened: as §1

Dovitinib + Olaparib = compound: CN1CCN(c2ccc3nc(-c4c(N)c5c(F)cccc5[nH]c4=O)[nH]c3c2)CC1 [Dovitinib] + O=C(c1cc(Cc2n[nH]c(=O)c3ccccc23)ccc1F)N1CCN(C(=O)C2CC2)CC1 [Olaparib] (partner 8 µM)
Procedure, shortened: as §1

Dovitinib + Luminespib = compound: CN1CCN(c2ccc3nc(-c4c(N)c5c(F)cccc5[nH]c4=O)[nH]c3c2)CC1 [Dovitinib] + CCNC(=O)c1noc(-c2cc(C(C)C)c(O)cc2O)c1-c1ccc(CN2CCOCC2)cc1 [Luminespib] (partner 0.01 µM)
Procedure, shortened: as §1

Dovitinib + Decitabine = compound: CN1CCN(c2ccc3nc(-c4c(N)c5c(F)cccc5[nH]c4=O)[nH]c3c2)CC1 [Dovitinib] + Nc1ncn([C@H]2C[C@H](O)[C@@H](CO)O2)c(=O)n1 [Decitabine] (partner 2 µM)
Procedure, shortened: as §1

Dovitinib + OSI-027 = compound: CN1CCN(c2ccc3nc(-c4c(N)c5c(F)cccc5[nH]c4=O)[nH]c3c2)CC1 [Dovitinib] + COc1cccc2cc(-c3nc([C@H]4CC[C@H](C(=O)O)CC4)n4ncnc(N)c34)[nH]c12 [OSI-027] (partner 0.5 µM)
Procedure, shortened: as §1

Dovitinib + Phenformin = compound: CN1CCN(c2ccc3nc(-c4c(N)c5c(F)cccc5[nH]c4=O)[nH]c3c2)CC1 [Dovitinib] + N=C(N)NC(=N)NCCc1ccccc1 [Phenformin] (partner 250 µM)
Procedure, shortened: as §1

Dovitinib + AZD7762 = compound: CN1CCN(c2ccc3nc(-c4c(N)c5c(F)cccc5[nH]c4=O)[nH]c3c2)CC1 [Dovitinib] + NC(=O)Nc1cc(-c2cccc(F)c2)sc1C(=O)N[C@H]1CCCNC1 [AZD7762] (partner 0.2 µM)
Procedure, shortened: as §1

Dovitinib + Vorinostat = compound: CN1CCN(c2ccc3nc(-c4c(N)c5c(F)cccc5[nH]c4=O)[nH]c3c2)CC1 [Dovitinib] + O=C(CCCCCCC(=O)Nc1ccccc1)NO [Vorinostat] (partner 1 µM)
Procedure, shortened: as §1

Dovitinib + Trametinib = compound: CN1CCN(c2ccc3nc(-c4c(N)c5c(F)cccc5[nH]c4=O)[nH]c3c2)CC1 [Dovitinib] + CC(=O)Nc1cccc(-n2c(=O)n(C3CC3)c(=O)c3c(Nc4ccc(I)cc4F)n(C)c(=O)c(C)c32)c1 [Trametinib] (partner 0.02 µM)
Procedure, shortened: as §1

Dovitinib + Foretinib = compound: CN1CCN(c2ccc3nc(-c4c(N)c5c(F)cccc5[nH]c4=O)[nH]c3c2)CC1 [Dovitinib] + COc1cc2c(Oc3ccc(NC(=O)C4(C(=O)Nc5ccc(F)cc5)CC4)cc3F)ccnc2cc1OCCCN1CCOCC1 [Foretinib] (partner 0.25 µM)
Procedure, shortened: as §1

NCI-H522
relative viability (Dovitinib; 0.02 µM): 1 | relative viability (Dovitinib; 0.06325 µM): 1.09 | relative viability (Dovitinib; 0.2 µM): 1.22 | relative viability (Dovitinib; 0.6325 µM): 1.03 | relative viability (Dovitinib; 2 µM): 0.924 | relative viability (Dovitinib + Tozasertib; first compound 0.02 µM): 0.549 | relative viability (Dovitinib + Tozasertib; first compound 0.06325 µM): 0.583 | relative viability (Dovitinib + Tozasertib; first compound 0.2 µM): 0.536 | relative viability (Dovitinib + Tozasertib; first compound 0.6325 µM): 0.54 | relative viability (Dovitinib + Tozasertib; first compound 2 µM): 0.665 | relative viability (Dovitinib + Pemetrexed; first compound 0.02 µM): 1.05 | relative viability (Dovitinib + Pemetrexed; first compound 0.06325 µM): 1.03 | relative viability (Dovitinib + Pemetrexed; first compound 0.2 µM): 1.22 | relative viability (Dovitinib + Pemetrexed; first compound 0.6325 µM): 0.949 | relative viability (Dovitinib + Pemetrexed; first compound 2 µM): 1.02 | relative viability (Dovitinib + Palbociclib; first compound 0.02 µM): 1.07 | relative viability (Dovitinib + Palbociclib; first compound 0.06325 µM): 1.05 | relative viability (Dovitinib + Palbociclib; first compound 0.2 µM): 0.972 | relative viability (Dovitinib + Palbociclib; first compound 0.6325 µM): 1.19 | relative viability (Dovitinib + Palbociclib; first compound 2 µM): 1.06 | relative viability (Dovitinib + Dasatinib; first compound 0.02 µM): 0.857 | relative viability (Dovitinib + Dasatinib; first compound 0.06325 µM): 0.867 | relative viability (Dovitinib + Dasatinib; first compound 0.2 µM): 0.93 | relative viability (Dovitinib + Dasatinib; first compound 0.6325 µM): 0.706 | relative viability (Dovitinib + Dasatinib; first compound 2 µM): 0.887 | relative viability (Dovitinib + Olaparib; first compound 0.02 µM): 0.729 | relative viability (Dovitinib + Olaparib; first compound 0.06325 µM): 0.695 | relative viability (Dovitinib + Olaparib; first compound 0.2 µM): 0.728 | relative viability (Dovitinib + Olaparib; first compound 0.6325 µM): 0.634 | relative viability (Dovitinib + Olaparib; first compound 2 µM): 0.66 | relative viability (Dovitinib + Luminespib; first compound 0.02 µM): 1.15 | relative viability (Dovitinib + Luminespib; first compound 0.06325 µM): 0.989 | relative viability (Dovitinib + Luminespib; first compound 0.2 µM): 1.01 | relative viability (Dovitinib + Luminespib; first compound 0.6325 µM): 1.19 | relative viability (Dovitinib + Luminespib; first compound 2 µM): 1.07 | relative viability (Dovitinib + Decitabine; first compound 0.02 µM): 0.651 | relative viability (Dovitinib + Decitabine; first compound 0.06325 µM): 0.647 | relative viability (Dovitinib + Decitabine; first compound 0.2 µM): 0.665 | relative viability (Dovitinib + Decitabine; first compound 0.6325 µM): 0.727 | relative viability (Dovitinib + Decitabine; first compound 2 µM): 0.785 | relative viability (Dovitinib + OSI-027; first compound 0.02 µM): 0.685 | relative viability (Dovitinib + OSI-027; first compound 0.06325 µM): 0.721 | relative viability (Dovitinib + OSI-027; first compound 0.2 µM): 0.654 | relative viability (Dovitinib + OSI-027; first compound 0.6325 µM): 0.768 | relative viability (Dovitinib + OSI-027; first compound 2 µM): 0.686 | relative viability (Dovitinib + Phenformin; first compound 0.02 µM): 0.637 | relative viability (Dovitinib + Phenformin; first compound 0.06325 µM): 0.686 | relative viability (Dovitinib + Phenformin; first compound 0.2 µM): 0.583 | relative viability (Dovitinib + Phenformin; first compound 0.6325 µM): 0.625 | relative viability (Dovitinib + Phenformin; first compound 2 µM): 0.769 | relative viability (Dovitinib + AZD7762; first compound 0.02 µM): 0.704 | relative viability (Dovitinib + AZD7762; first compound 0.06325 µM): 0.81 | relative viability (Dovitinib + AZD7762; first compound 0.2 µM): 0.878 | relative viability (Dovitinib + AZD7762; first compound 0.6325 µM): 0.813 | relative viability (Dovitinib + AZD7762; first compound 2 µM): 0.974 | relative viability (Dovitinib + Vorinostat; first compound 0.02 µM): 0.811 | relative viability (Dovitinib + Vorinostat; first compound 0.06325 µM): 0.848 | relative viability (Dovitinib + Vorinostat; first compound 0.2 µM): 0.923 | relative viability (Dovitinib + Vorinostat; first compound 0.6325 µM): 0.837 | relative viability (Dovitinib + Vorinostat; first compound 2 µM): 1.01 | relative viability (Dovitinib + Trametinib; first compound 0.02 µM): 0.731 | relative viability (Dovitinib + Trametinib; first compound 0.06325 µM): 0.656 | relative viability (Dovitinib + Trametinib; first compound 0.2 µM): 0.829 | relative viability (Dovitinib + Trametinib; first compound 0.6325 µM): 0.687 | relative viability (Dovitinib + Trametinib; first compound 2 µM): 0.933

NCI-H1623
relative viability (Dovitinib; 0.02 µM): 1.07 | relative viability (Dovitinib; 0.06325 µM): 0.98 | relative viability (Dovitinib; 0.2 µM): 0.916 | relative viability (Dovitinib; 0.6325 µM): 1 | relative viability (Dovitinib; 2 µM): 0.892 | relative viability (Dovitinib + Tozasertib; first compound 0.02 µM): 0.458 | relative viability (Dovitinib + Tozasertib; first compound 0.06325 µM): 0.427 | relative viability (Dovitinib + Tozasertib; first compound 0.2 µM): 0.495 | relative viability (Dovitinib + Tozasertib; first compound 0.6325 µM): 0.445 | relative viability (Dovitinib + Tozasertib; first compound 2 µM): 0.423 | relative viability (Dovitinib + Foretinib; first compound 0.02 µM): 0.81 | relative viability (Dovitinib + Foretinib; first compound 0.06325 µM): 0.821 | relative viability (Dovitinib + Foretinib; first compound 0.2 µM): 0.958 | relative viability (Dovitinib + Foretinib; first compound 0.6325 µM): 0.901 | relative viability (Dovitinib + Foretinib; first compound 2 µM): 0.893 | relative viability (Dovitinib + Dasatinib; first compound 0.02 µM): 0.47 | relative viability (Dovitinib + Dasatinib; first compound 0.06325 µM): 0.527 | relative viability (Dovitinib + Dasatinib; first compound 0.2 µM): 0.615 | relative viability (Dovitinib + Dasatinib; first compound 0.6325 µM): 0.536 | relative viability (Dovitinib + Dasatinib; first compound 2 µM): 0.537 | relative viability (Dovitinib + Luminespib; first compound 0.02 µM): 0.493 | relative viability (Dovitinib + Luminespib; first compound 0.06325 µM): 0.605 | relative viability (Dovitinib + Luminespib; first compound 0.2 µM): 0.491 | relative viability (Dovitinib + Luminespib; first compound 0.6325 µM): 0.551 | relative viability (Dovitinib + Luminespib; first compound 2 µM): 0.516 | relative viability (Dovitinib + OSI-027; first compound 0.02 µM): 0.476 | relative viability (Dovitinib + OSI-027; first compound 0.06325 µM): 0.436 | relative viability (Dovitinib + OSI-027; first compound 0.2 µM): 0.456 | relative viability (Dovitinib + OSI-027; first compound 0.6325 µM): 0.384 | relative viability (Dovitinib + OSI-027; first compound 2 µM): 0.384 | relative viability (Dovitinib + Phenformin; first compound 0.02 µM): 0.569 | relative viability (Dovitinib + Phenformin; first compound 0.06325 µM): 0.574 | relative viability (Dovitinib + Phenformin; first compound 0.2 µM): 0.602 | relative viability (Dovitinib + Phenformin; first compound 0.6325 µM): 0.617 | relative viability (Dovitinib + Phenformin; first compound 2 µM): 0.636
